Data as given in patent publication US4137414A, “5-Substituted-2-phenylbenzo[b]thiophene-3-alkylamines and related compounds” (G. D. Searle & Co., priority 1977, dated 1979).
≈ marks a conversion by molar mass, not a printed value. Structures can show the parent of a compound that is named as a salt. Where two headings read alike, the source gives them in different places.

What was measured:
[1] = test system: Escherialla coli ATCC 8739; assay: Anti-bacterial assay against aerobic bacteria (serial dilution in nutrient broth); format: cell-based; details: no growth of organism; aerobic incubation 20-24 hr. at 37° C.; tested at 100, 10, 1, 0.1 mcgm per ml; read-out: active (minimum concentration at which a compound is active)
Protocol: Evidence of the anti-bacterial utility of the instant compounds vis-a-vis aerobic bacteria is provided by the following standardized test. Nutrient broth (manufactured by Baltimore Biological Laboratories) is prepared by recommended by the manufacturer, sterilized, and inoculated with Escherialla coli ATCC 8739 q.s. one million cells per ml, determined spectrophotometrically. Meanwhile, compound is heated in sterile distilled water at a concentration of 1000 mcgm per ml for 20 minutes at 80° C. This compound preparation is serially diluted and mixed with sufficient inoculated medium to afford concentrations of 100, 10, 1, and 0.1 mcgm of compound per ml. The mixtures thus obtained are incubated aerobically for 20-24 hr. at 37° C. and then examined grossly for growth of the organism. Controls are provided by concurrent incubations identical with the above except that (1) reference standards (4.3, 0.43, 0.043, and 0.0043 mcgm per ml of streptomycin sulfate and 6667, 667, 67, and 7 units of potassium penicillin G) are substituted for compound and (2) neither compound nor reference standard is present. Compounds are considered active if, at the maximum concentrations tested, no growth of organism is observed and no aberrancy is apparent in respect of the controls. Potency is expressed as the minimum concentration at which a compound is active.

[2] = target: T1, dopamine receptors (3H-Haloperidol sites) (Bos taurus, UniProt P20288); details: for antagonist ratios: in words, compared with known neuroleptics
T1 sequence (P20288 whole entry): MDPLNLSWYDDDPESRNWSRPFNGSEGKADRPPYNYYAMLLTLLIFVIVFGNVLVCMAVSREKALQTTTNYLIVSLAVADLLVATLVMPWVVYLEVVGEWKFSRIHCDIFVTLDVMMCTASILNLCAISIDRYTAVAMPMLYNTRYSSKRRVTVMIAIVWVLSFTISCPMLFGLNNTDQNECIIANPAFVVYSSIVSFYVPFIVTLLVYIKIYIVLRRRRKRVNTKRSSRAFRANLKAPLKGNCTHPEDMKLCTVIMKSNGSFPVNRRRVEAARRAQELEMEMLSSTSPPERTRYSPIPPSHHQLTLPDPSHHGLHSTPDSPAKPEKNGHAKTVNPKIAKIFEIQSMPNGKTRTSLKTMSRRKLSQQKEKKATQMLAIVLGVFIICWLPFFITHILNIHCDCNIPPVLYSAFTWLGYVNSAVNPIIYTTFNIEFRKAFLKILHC
Protocol: (§1) The procedure for this assay is as follows:
(§2) Calf caudate nuclei were dissected from freshly obtained brains and stored frozen at -76° C.
(§3) Test compounds were added as 20 μl aliquots from stock solutions prepared in absolute ethanol or 0.1% ascorbic acid.
(§4) Immediately following all incubations, proteins were recovered on Whatman GF/B glass fiber filters under reduced pressure. Trapped membranes were solubilized off the filters using 1 ml NCS tissue solubilizer (Amersham/Searle Corp.) at 50° C. for 1 hour. Then, pH was adjusted by adding 0.1 ml glacial acetic acid, 10 ml PCS (Amersham/Searle) added and samples analyzed for membrane-bound radioactivity using a Mark II liquid scintillation counter (Searle Analytical, Inc.).
(§5) IC50 values were determined from log-probit plots using 4-6 concentrations of each compound.
(§6) There as two indications from the assay data as to whether a compound is a probable neuroleptic. Firstly, it must be a dopamine antagonist. […] In other words, it must have a high ^3 H-DA/^3 H-HALO, IC50 ratio.

[3] = target: T1, dopamine receptors (3H-Haloperidol sites); assay: biochemical
Protocol: as §1, §2, §3, §4, §5, §6

[4] = target: dopamine receptors (3H-dopamine sites); assay: Receptor Binding Assay: stereospecific binding of 3H-dopamine to calf caudate membranes; details: displacement of 5nM 3H-dopamine; calf caudate membrane homogenate; 37° C., 15 minutes
Protocol: as §1, §2, §3, §4, §5, §6

CN1CCN(CCc2c(-c3ccccc3)sc3ccc(Cl)cc23)CC1 [1-[3-(5-chloro-2-phenylbenzo[b]thiophen-3-yl)ethyl]-4-methylpiperazine dihydrochoride]
MIC [1]: 10 µg/mL (≈ 27 µM)

CN1CCN(CCCc2c(-c3ccccc3)sc3ccc(Cl)cc23)CC1.Cl.Cl [1-[3-(5-chloro-2-phenylbenzo[b]thiophen-3-yl)propyl]-4-methylpiperazine dihydrochloride]
MIC [1]: 100 µg/mL

OCCN1CCN(Cc2c(-c3ccccc3)sc3ccc(Cl)cc23)CC1 [1-[(5-chloro-2-phenylbenzo[b]thiophen-3-yl)methyl]-4-ethanol piperazine dihydrochloride]
MIC [1]: 100 µg/mL

Cl.Clc1ccc2sc(-c3ccccc3)c(CCN3CCCC3)c2c1 [1[2-(5-chloro-2-phenylbenzo[b]thiophen-3-yl)ethyl]pyrrolidine hydrochloride]
Ratio (^3 H-DA/^3 H-HALO IC50 ratio) ([2]; IC50 3H-dopamine / IC50 3H-Haloperidol, high ratio indicates dopamine antagonist): 74
antagonist ratios [2]: comparable to clozapine and chloropromazine
IC50 [3]: 0.65 µM
IC50 [4]: 48 µM

CN(C)CCc1c(-c2ccccc2)sc2ccccc12 [2-phenylbenzo[b]thiophene-3-N,N-dimethylethanamine hydrochloride]
Ratio (^3 H-DA/^3 H-HALO IC50 ratio) [2]: 21
antagonist ratios [2]: comparable to clozapine and chloropromazine
IC50 [3]: 0.62 µM
IC50 [4]: 12 µM

CCN(CC)CCc1c(-c2ccccc2)sc2ccc(Cl)cc12 [5-chloro-2-phenylbenzo[b]thiophene-3-N,N-diethylethanamine hydrochloride]
Ratio (^3 H-DA/^3 H-HALO IC50 ratio) [2]: 50
antagonist ratios [2]: comparable to clozapine and chloropromazine
IC50 [3]: 0.12 µM
IC50 [4]: 6 µM

CN(C)CCc1c(-c2ccccc2)sc2ccc(Cl)cc12 [5-chloro-2-phenylbenzo[b]thiophene-3-N,N-dimethylethanamine hydrochloride]
Ratio (^3 H-DA/^3 H-HALO IC50 ratio) [2]: 31
antagonist ratios [2]: comparable to clozapine and chloropromazine
MIC [1]: 100 µg/mL
IC50 [3]: 0.65 µM
IC50 [4]: 20 µM

CN(C)CCCc1c(-c2ccccc2)sc2ccc(Cl)cc12 [5-chloro-2-phenylbenzo[b]thiophene-3-N,N-dimethylpropanamine hydrochloride]
Ratio (^3 H-DA/^3 H-HALO IC50 ratio) [2]: 137
antagonist ratios [2]: comparable to clozapine and chloropromazine
IC50 [3]: 0.35 µM
IC50 [4]: 48 µM

Cl.NCCc1c(-c2ccccc2)sc2ccc(Cl)cc12 [5-chloro-2-phenylbenzo[b]thiophene-3-ethanamine hydrochloride]
MIC [1]: 10 µg/mL
